System: HCT116 cells
Test: Detection of apoptosis by annexin V-FITC / 7-AAD flow cytometry
Type: cell-based, human
Conditions: proteins 2 µM, staurosporine 0.5 µM, 24 h
Protocol: In addition, apoptotic cells were identified by staining with annexin V-FITC (150 ng/ml) and 7 amino-actinomycin D (7-AAD; BD Biosciences, San Diego, CA). 1×10^6 HCT116 cells were treated with PBS, staurosporine (0.5 µM), or peptide-fused scFvs (each, 2 µM) as described above. At the designated time, cells were washed twice with PBS (pH 7.4), harvested and resuspended in 500 µl of binding buffer supplemented with Annexin-V fluos (1∶100 diluted; BioBud, Seoul, Korea), and incubated for 15 min at 25°C in the dark. To detect necrosis, 7AAD was added prior to measurement. Samples were immediately subjected to FACS analysis with a FACSCalibur flow cytometer (FL1 and FL3) and WinMDI software (Joe Trotter, Scripps Research Institute). 1×10^4 cells per sample were analyzed by flow cytometry.
Figure 5 The BR2-anti-Ras scFv fusion protein promotes apoptosis by blocking Ras signaling in Ras-mutated HCT116 cells. […] The numbers on the top of the quadrants indicate the percentage of apoptotic and late apoptotic/necrotic cells counted from dot plots taken from one representative experiment, performed in triplicate. […] Changes in Ras activity level in HCT116 cells treated with anti-Ras scFv and BR2- and Tat-scFv fusion proteins (each, 1 and 2 µM) were determined by an ELISA-based activity assay; results are expressed as relative Ras activity (%). […]

## CN[C@@H]1C[C@H]2O[C@@](C)([C@@H]1OC)n1c3ccccc3c3c4c(c5c6ccccc6n2c5c31)C(=O)NC4 [staurosporine]
  cells in the apoptotic stage (apoptotic and late apoptotic/necrotic): 61.6%

From publication PMC3679022, “A Cancer Specific Cell-Penetrating Peptide, BR2, for the Efficient Delivery of an scFv into Cancer Cells” (PLoS ONE, 2013)
